Laboratory results from ChEMBL document CHEMBL1122407, “Synthesis and biological activity of various 3'-azido and 3'-amino analogues of 5-substituted pyrimidine deoxyribonucleosides” (1983).
Values joined by “and” are separate entries in the source; they are usually repeats but may differ in a detail not shown here. Equal entries are not always repeated. Active and inactive are the calls of the source. The calls are words filed in the database; no cut-off is given here.

tested on: Sarcoma-180; test: In vitro inhibition against replication of […] cells; inactive; assay type: functional, cell-based; details: Mus musculus

Row | SMILES | ED50
1 | [N-]=[N+]=N[C@H]1C[C@H](n2ccc(N)nc2=O)O[C@@H]1CO | inactive
2 | Cc1cn([C@H]2C[C@@H](N)[C@@H](CF)O2)c(=O)[nH]c1=O | inactive
3 | Cc1cn([C@H]2C[C@@H](N=[N+]=[N-])[C@@H](CF)O2)c(=O)[nH]c1=O | inactive
4 | [N-]=[N+]=N[C@H]1C[C@H](n2ccc(=O)[nH]c2=O)O[C@@H]1CO | inactive
5 | Cc1cn([C@H]2C[C@H](N=[N+]=[N-])[C@@H](CO)O2)c(=O)nc1N | inactive

target: T1, Thymidine kinase, cytosolic (Mus musculus) (UniProt P04184); test: Inhibitory activity against thymidine kinase (TK) from L1210 cells; assay type: cell-based; design: concentration or dose not given beside the values; details: not given
T1 sequence (whole entry): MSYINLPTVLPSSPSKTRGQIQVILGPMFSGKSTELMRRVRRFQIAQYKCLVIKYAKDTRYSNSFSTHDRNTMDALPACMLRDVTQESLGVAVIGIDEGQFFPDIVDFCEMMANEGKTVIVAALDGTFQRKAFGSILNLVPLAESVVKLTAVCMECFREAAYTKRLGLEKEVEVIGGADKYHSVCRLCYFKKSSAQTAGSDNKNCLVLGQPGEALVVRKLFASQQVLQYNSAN

Row | Activity | SMILES
6 | 92% and 82% | N[C@@H]1C[C@H](n2cc(F)c(=O)[nH]c2=O)O[C@@H]1CO
7 | 85% and 72% | [N-]=[N+]=N[C@H]1C[C@H](n2ccc(N)nc2=O)O[C@@H]1CO
8 | 81% and 61% | N[C@@H]1C[C@H](n2cc(C(F)(F)F)c(=O)[nH]c2=O)O[C@@H]1CO
9 | 89% and 83% | Cc1cn([C@H]2C[C@@H](N)[C@@H](CF)O2)c(=O)[nH]c1=O
10 | 93% and 95% | Cc1cn([C@H]2C[C@@H](N=[N+]=[N-])[C@@H](CF)O2)c(=O)[nH]c1=O
11 | 81% and 70% | Nc1nc(=O)n([C@H]2C[C@@H](N)[C@@H](CO)O2)cc1F
12 | 77% and 84% | Nc1ccn([C@H]2C[C@H](N)[C@@H](CO)O2)c(=O)n1
13 | 95% and 72% | Cc1cn([C@H]2C[C@H](N)[C@@H](CO)O2)c(=O)[nH]c1=O
14 | 88% and 103% | [N-]=[N+]=N[C@H]1C[C@H](n2cc(F)c(N)nc2=O)O[C@@H]1CO
15 | 92% and 81% | Cc1cn([C@H]2C[C@H](N=[N+]=[N-])[C@@H](CO)O2)c(=O)nc1N
16 | 95% and 71% | N[C@@H]1C[C@H](n2cc(I)c(=O)[nH]c2=O)O[C@@H]1CO
17 | 78% and 71% | [N-]=[N+]=N[C@H]1C[C@H](n2cc(F)c(=O)[nH]c2=O)O[C@@H]1CO
18 | 93% and 80% | Cc1cn([C@H]2C[C@@H](N)[C@@H](CO)O2)c(=O)nc1N

tested on: L1210; test: In vitro inhibition against replication of L1210 murine cells; assay type: functional; details: Mus musculus, read-out: ED50 (the source's name)

Row | EC50 | SMILES
19 | 15 µM | N[C@@H]1C[C@H](n2cc(F)c(=O)[nH]c2=O)O[C@@H]1CO
20 | 150 µM | N[C@@H]1C[C@H](n2cc(C(F)(F)F)c(=O)[nH]c2=O)O[C@@H]1CO
21 | 400 µM | [N-]=[N+]=N[C@H]1C[C@H](n2cc(C(F)(F)F)c(=O)[nH]c2=O)O[C@@H]1CO
22 | 10 µM | Nc1nc(=O)n([C@H]2C[C@@H](N)[C@@H](CO)O2)cc1F
23 | 18 µM | N[C@H]1C[C@H](n2ccc(=O)[nH]c2=O)O[C@@H]1CO
24 | 0.7 µM | Nc1ccn([C@H]2C[C@H](N)[C@@H](CO)O2)c(=O)n1
25 | 25 µM | [N-]=[N+]=N[C@H]1C[C@H](n2cc(F)c(N)nc2=O)O[C@@H]1CO
26 | 400 µM | N[C@@H]1C[C@H](n2cc(I)c(=O)[nH]c2=O)O[C@@H]1CO
27 | 20 µM | [N-]=[N+]=N[C@H]1C[C@H](n2cc(F)c(=O)[nH]c2=O)O[C@@H]1CO
28 | 25 µM | Cc1cn([C@H]2C[C@@H](N)[C@@H](CO)O2)c(=O)nc1N

tested on: L1210; test: In vitro inhibition against replication of L1210 murine cells; inactive; assay type: functional, cell-based; details: Mus musculus

Row | SMILES | ED50
29 | [N-]=[N+]=N[C@H]1C[C@H](n2ccc(N)nc2=O)O[C@@H]1CO | inactive
30 | Cc1cn([C@H]2C[C@@H](N)[C@@H](CF)O2)c(=O)[nH]c1=O | inactive
31 | Cc1cn([C@H]2C[C@@H](N=[N+]=[N-])[C@@H](CF)O2)c(=O)[nH]c1=O | inactive
32 | [N-]=[N+]=N[C@H]1C[C@H](n2ccc(=O)[nH]c2=O)O[C@@H]1CO | inactive
33 | Cc1cn([C@H]2C[C@H](N=[N+]=[N-])[C@@H](CO)O2)c(=O)nc1N | inactive

target: Deoxycytidine kinase (Mus musculus) (UniProt P43346); test: Inhibitory activity against deoxycytidine kinase from L1210 cells; assay type: cell-based; design: concentration or dose not given beside the values; scale not given: the % may be the effect or the level left; details: not given
Sequence (P43346 whole entry, looked up): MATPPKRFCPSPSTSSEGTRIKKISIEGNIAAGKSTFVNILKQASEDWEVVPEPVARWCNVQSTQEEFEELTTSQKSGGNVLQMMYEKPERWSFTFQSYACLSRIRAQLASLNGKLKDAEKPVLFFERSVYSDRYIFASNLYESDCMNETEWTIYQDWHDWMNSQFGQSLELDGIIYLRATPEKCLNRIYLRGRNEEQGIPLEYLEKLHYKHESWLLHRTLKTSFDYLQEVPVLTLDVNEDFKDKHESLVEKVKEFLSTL

Row | Activity | SMILES
34 | 93% | N[C@@H]1C[C@H](n2cc(F)c(=O)[nH]c2=O)O[C@@H]1CO
35 | 86% and 78% | [N-]=[N+]=N[C@H]1C[C@H](n2ccc(N)nc2=O)O[C@@H]1CO
36 | 101% and 87% | N[C@@H]1C[C@H](n2cc(C(F)(F)F)c(=O)[nH]c2=O)O[C@@H]1CO
37 | 91% and 88% | Cc1cn([C@H]2C[C@@H](N)[C@@H](CF)O2)c(=O)[nH]c1=O
38 | 93% and 89% | Cc1cn([C@H]2C[C@@H](N=[N+]=[N-])[C@@H](CF)O2)c(=O)[nH]c1=O
39 | 91% and 85% | [N-]=[N+]=N[C@H]1C[C@H](n2cc(C(F)(F)F)c(=O)[nH]c2=O)O[C@@H]1CO
40 | 82% and 73% | Nc1nc(=O)n([C@H]2C[C@@H](N)[C@@H](CO)O2)cc1F
41 | 97% and 94% | N[C@H]1C[C@H](n2ccc(=O)[nH]c2=O)O[C@@H]1CO
42 | 89% and 85% | Nc1ccn([C@H]2C[C@H](N)[C@@H](CO)O2)c(=O)n1
43 | 92% | [N-]=[N+]=N[C@H]1C[C@H](n2ccc(=O)[nH]c2=O)O[C@@H]1CO
44 | 96% and 87% | Cc1cn([C@H]2C[C@H](N)[C@@H](CO)O2)c(=O)[nH]c1=O
45 | 70% and 61% | [N-]=[N+]=N[C@H]1C[C@H](n2cc(F)c(N)nc2=O)O[C@@H]1CO
46 | 89% and 84% | Cc1cn([C@H]2C[C@H](N=[N+]=[N-])[C@@H](CO)O2)c(=O)[nH]c1=O
47 | 87% and 97% | O=c1[nH]c(=O)n([C@H]2C[C@H](O)[C@@H](CO)O2)cc1I
48 | 62% and 55% | Cc1cn([C@H]2C[C@H](N=[N+]=[N-])[C@@H](CO)O2)c(=O)nc1N
49 | 87% and 91% | N[C@@H]1C[C@H](n2cc(I)c(=O)[nH]c2=O)O[C@@H]1CO
50 | 94% and 89% | [N-]=[N+]=N[C@H]1C[C@H](n2cc(F)c(=O)[nH]c2=O)O[C@@H]1CO
51 | 90% and 82% | Cc1cn([C@H]2C[C@@H](N)[C@@H](CO)O2)c(=O)nc1N
52 | 88% and 92% | O=c1ccn([C@H]2C[C@H](O)[C@@H](CO)O2)c(=O)[nH]1

tested on: Sarcoma-180; test: In vitro inhibition against replication of Sarcoma-80 cells; assay type: functional; details: Mus musculus, read-out: ED50 (the source's name)

Row | EC50 | SMILES
53 | 1 µM | N[C@@H]1C[C@H](n2cc(F)c(=O)[nH]c2=O)O[C@@H]1CO
54 | 100 µM | N[C@@H]1C[C@H](n2cc(C(F)(F)F)c(=O)[nH]c2=O)O[C@@H]1CO
55 | 100 µM | [N-]=[N+]=N[C@H]1C[C@H](n2cc(C(F)(F)F)c(=O)[nH]c2=O)O[C@@H]1CO
56 | 1 µM | Nc1nc(=O)n([C@H]2C[C@@H](N)[C@@H](CO)O2)cc1F
57 | 50 µM | N[C@H]1C[C@H](n2ccc(=O)[nH]c2=O)O[C@@H]1CO
58 | 4 µM | Nc1ccn([C@H]2C[C@H](N)[C@@H](CO)O2)c(=O)n1
59 | 40 µM | [N-]=[N+]=N[C@H]1C[C@H](n2cc(F)c(=O)[nH]c2=O)O[C@@H]1CO
60 | 20 µM | Cc1cn([C@H]2C[C@@H](N)[C@@H](CO)O2)c(=O)nc1N
